Earlier results in US10881750B2, “Sentinel lymph node marker capable of multi-mode imaging” (NATIONAL CANCER CENTER, priority 2010, dated 2021).

Conditions: 18 breast cancer patients, clinical trials (Kitai et al., Breast Cancer 2005)

## CC1(C)C(/C=C/C=C/C=C/C=C2\N(CCCCS(=O)(=O)O)c3ccc4ccccc4c3C2(C)C)=[N+](CCCCS(=O)(=O)[O-])c2ccc3ccccc3c21 [indocyanine green]
  safety in clinical use: safe to use
